Results taken from patent US6436986B1, “Glucocorticoid receptor antagonists for treatment of diabetes” (Abbott Laboratories, priority 1999, dated 2002).

SMILES: COc1cccc2c1-c1cccc(C)c1C(NS(C)(=O)=O)(c1cccc(C(F)(F)F)c1)O2 (stereo not shown) [Example 1, N-[1-methoxy-7-methyl-6-[3-(trifluoromethyl)phenyl]-6H-dibenzo[b,d]pyran-6-yl]methanesulfonamide]
- melting point: 217 to 218 °C
